Experimental data from paper PMC8705362, “Cytochrome P450 and P-gp Mediated Herb-Drug Interactions and Molecular Docking Studies of Garcinol” (Membranes, 2021).
Where two headings read alike, the source gives them in different places.

Tests used:
CYP2B6 [1] = assay: In-vivo CYP inhibition study, pharmacokinetics of probe bupropion and hydroxy bupropion; settings: plasma
P-gp [2] = assay: In-vivo P-gp pharmacokinetic study with digoxin; parameters: species or system SD rats; settings: for Cl / Cmax / AUC(0-inf) / AUC(0-t) / half-life: SD rats, plasma; for Cmax / AUC(0-inf) / AUC(0-t) / half-life: rat, po; for Cmax: 0.5 mg/kg
Protocol: Effect of single dose garcinol on the P-gp was evaluated in-vivo, 18 rats were divided into three groups (Group I- Group III). Group I (Control group): rats were administered intragastrically with a single dose of vehicle (0.5% CMC-Na), and after 2 h of vehicle administration, digoxin (0.5 mg/kg) was given to the rats by intragastric administration. Group II: Rats received a single dose of garcinol (25 mg/kg) and digoxin (0.5 mg/kg) after 2 h. Group III: Verapamil (potent P-gp inhibitor) was administered to these rats followed by the administration of digoxin (results not shown). 0.2 mL of blood was collected at 0, 0.25, 0.5, 1, 2, 4, 6, 8, 24, and 48 h, plasma was separated immediately by centrifuging blood samples at 5000 rpm for 5 min and stored at −80 °C until analysis.
50 µL of plasma samples was crashed with ice-cold ACN containing internal standard (75 ng/mL) and vortexed gently and centrifuged at 10,000 rpm for 5 min. Supernatant was collected and submitted for LC-MS/MS analysis. LC-MS analysis was performed on LC-QTOF/MS (Agilent, 6540) and chromatographic separation was achieved on Waters X-Bridge C18 column (3.5 µm, 50 mm × 1.76 mm I.D) at 30 °C. Digoxin was analysed by a mobile phase consisting of solvent A (0.1% Formic acid in water) and solvent B (100% ACN) flow at a rate of 0.4 mL/min with a gradient program of 5 min. The program consisted of initial10 %B from 0.01 to 3.00 min, followed by 90% B from 3.01 to 4.00 min and again to 10% B from 4.01 to 5.00 min. [M+H]+ ions were identified and quantified for Digoxin and IS as 781.4369 and 515.2442, respectively. Optimized MS operating parameters were as follows: drying gas 10 L/min, gas temperature 325 °C, nebulizer at 40 psig, fragmentor voltage of 140 V and skimmer at 65 V.

CYP1A2 = target: T1, CYP1A2 (Rattus norvegicus, UniProt P04799); assay: CYP1A2 inhibition, probe substrate cocktail in rat liver microsomes (tacrine 1-hydroxylation)
T1 sequence (P04799 1-513): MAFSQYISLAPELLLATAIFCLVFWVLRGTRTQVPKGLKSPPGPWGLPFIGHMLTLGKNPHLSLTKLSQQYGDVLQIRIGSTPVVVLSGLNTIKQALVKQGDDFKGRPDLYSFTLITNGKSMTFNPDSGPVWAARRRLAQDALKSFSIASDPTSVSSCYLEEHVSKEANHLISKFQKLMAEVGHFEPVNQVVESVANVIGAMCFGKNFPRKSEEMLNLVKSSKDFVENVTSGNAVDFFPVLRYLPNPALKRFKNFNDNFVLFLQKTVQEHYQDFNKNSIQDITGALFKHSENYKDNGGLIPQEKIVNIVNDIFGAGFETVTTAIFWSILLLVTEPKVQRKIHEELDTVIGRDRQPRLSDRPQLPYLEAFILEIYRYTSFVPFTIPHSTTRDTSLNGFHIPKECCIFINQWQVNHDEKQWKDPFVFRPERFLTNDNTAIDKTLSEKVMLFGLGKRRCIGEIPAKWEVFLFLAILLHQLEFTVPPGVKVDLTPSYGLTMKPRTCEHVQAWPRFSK
Protocol: (§1) Tacrine was used as CYP1A2 probe substrate instead of Phenacetin to avoid the possible interactions of Phenacetin with CYP2E1 probe substrate Chlorzoxazone. […] The above incubation mixture was pre-incubated for 5 min at 37 °C and the reaction was started by adding NADPH and terminated by the addition of 200 µL of ice-cold acetonitrile containing internal standard (IS). Then the mixture was vortex mixed and centrifuged at 4000 rpm for 10 min at 4 °C and supernatant was separated and analysed using LC-MS/MS.
(§2) IC50 values were determined by comparing each CYP isozyme activity in the presence of different concentrations of inhibitor (Garcinol) with the control incubations containing no inhibitor (Negative control). […]
(§3) The entire procedure is same as mentioned in section 2.3 except for various concentrations of the formulations
(§4) and extracts (0.41-100 µg/mL) and garcinol (0.11-30 µM) were used in the study.

P-gp [3] = assay: Western blotting of P-gp expression in rat brain and intestine; type: in vivo, rats; settings: garcinol 25 mg/kg intragastric once a day for 10 days, normalized to β-actin, p < 0.05
Protocol: For Western blot analysis, twelve rats were divided into two groups. […] On the 10th day, all the rats were sacrificed under CO2 euthanasia. Brain and intestine were isolated immediately and stored at −80 °C until use. 10 mg of intestinal and brain samples were lysed using ice-cold radio immunoprecipitation assay lysis buffer containing 0.02 mM phenylmethane sulfonyl fluoride for 30 min and ultrasonicated for 60 s at 20-s intervals in an ice bath. These samples were transferred to centrifugation tubes and centrifuged for 10 min at 8000 g by maintaining temperature at 4 °C. Supernatants were estimated for protein concentration using BCA protein assay kit by following the manufacturer’s instructions. Protein denaturation was performed by reconstituting the supernatant in lammelle buffer and boiled for 5 mins at 97 °C. The denatured samples were later separated on 10% SDS-polyacrylamide gel electrophoresis and then transferred onto a nitrocellulose membrane. The membrane was then blocked with 3% bovine serum albumin in Tris-buffered saline-Tween 20 (TBS-T) for 1 hr at 37 °C. These immunoblots were probed with primary monoclonal antibody P-gp (1:1000) or β-actin (1:1000) overnight at 4 °C. […] The band intensity of P-gp protein was normalized to that of β-actin detected using Azure biosystems.

CYP2E1 = CYP2E1 (Rattus norvegicus, UniProt P05182); assay: CYP2E1 inhibition, probe substrate cocktail in rat liver microsomes (chlorzoxazone 6-hydroxylation)
CYP2E1, sequence (P05182 whole entry): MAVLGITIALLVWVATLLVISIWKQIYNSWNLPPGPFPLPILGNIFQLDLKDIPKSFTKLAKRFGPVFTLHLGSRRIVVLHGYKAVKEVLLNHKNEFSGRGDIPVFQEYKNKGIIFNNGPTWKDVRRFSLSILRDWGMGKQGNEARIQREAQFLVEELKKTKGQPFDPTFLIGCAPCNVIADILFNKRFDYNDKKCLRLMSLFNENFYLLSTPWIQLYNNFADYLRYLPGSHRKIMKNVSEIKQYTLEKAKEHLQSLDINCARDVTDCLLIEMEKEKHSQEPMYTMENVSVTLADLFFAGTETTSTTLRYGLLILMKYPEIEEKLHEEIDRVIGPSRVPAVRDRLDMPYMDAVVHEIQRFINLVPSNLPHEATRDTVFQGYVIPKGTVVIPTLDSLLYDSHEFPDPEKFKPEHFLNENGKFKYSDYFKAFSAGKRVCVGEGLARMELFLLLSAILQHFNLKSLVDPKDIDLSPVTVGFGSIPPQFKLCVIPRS
Protocol: as §1, §2, §3, §4

CYP2D6 = CYP2D6 inhibition, probe substrate cocktail in rat liver microsomes (dextromethorphan O-demethylation); type: in vitro ADME; settings: pH 7.4, probe dextromethorphan (O-demethylation), rat liver microsomes 0.5 mg/mL, garcinol 0.11-30 µM
Protocol: as §1, §2, §3, §4

CYP2C9 = CYP2C9 inhibition, probe substrate cocktail in rat liver microsomes (diclofenac 4-hydroxylation); type: in vitro ADME; settings: pH 7.4, probe diclofenac (4-hydroxylation), rat liver microsomes 0.5 mg/mL, garcinol 0.11-30 µM
Protocol: as §1, §2, §3, §4

CYP3A4 [4] = assay: CYP3A4 inhibition, probe substrate cocktail in rat liver microsomes (midazolam 1-hydroxylation); type: in vitro ADME; settings: pH 7.4, probe midazolam (1-hydroxylation), rat liver microsomes 0.5 mg/mL, garcinol 0.11-30 µM
Protocol: as §1, §2, §3, §4

CYP2B6 [5] = assay: CYP2B6 inhibition, probe substrate cocktail in rat liver microsomes (bupropion hydroxylation); type: in vitro ADME; settings: pH 7.4, probe bupropion (hydroxylation)
Protocol: as §1, §2, §3, §4

CYP isoforms = assay: Time-dependent inhibition, IC50 shift assay in rat liver microsomes; type: in vitro ADME; settings: 30 min pre-incubation with and without NADPH, all tested CYP isoforms
Protocol: Garcinol was pre-incubated with rat liver microsomes to determine the time-dependent inhibition potential of garcinol on various CYP isoforms individually. After 30 min of incubation with and without NADPH separately, metabolites of each CYP probe substrates were quantified using LC-MS/MS. IC50 values with and without NADPH pre-incubation were calculated using graph-pad prism and change in IC50 fold was calculated to evaluate the potential of garcinol to inhibit the CYP enzymes irreversibly. If the curve shifts to lower IC50 value after the pre- incubation in presence of NADPH, it is said to be a time-dependent inhibition. Concentrations of the test compound and other procedure were same as reversible inhibition study mentioned under Section 2.3.

CYP2C8 = CYP2C8 inhibition, probe substrate cocktail in rat liver microsomes (paclitaxel 6α-hydroxylation); type: in vitro ADME; settings: for Inhibition of CYP2C8 (in words): rat liver microsomes, garcinol up to 30 µM
Protocol: as §1, §2, §3, §4

CYP2C19 = CYP2C19 inhibition, probe substrate cocktail in rat liver microsomes (S-mephenytoin 4-hydroxylation); type: in vitro ADME; settings: pH 7.4, probe S-mephenytoin (4-hydroxylation), rat liver microsomes 0.5 mg/mL, garcinol 0.11-30 µM
Protocol: as §1, §2, §3, §4

CYP3A4 [6] = settings: rats, midazolam 10 mg/kg in probe mixture on day 8, with garcinol 25 mg/kg oral for 7 days, plasma; second block of Table 3
CYP3A4 [7] = assay: in vivo; settings: Sprague-Dawley, rat, plasma, po, 10 mg/kg
[8] = Sprague-Dawley, rat, po, 10 mg/kg
[9] = digoxin 0.5 mg/kg 2 h after single dose garcinol 25 mg/kg (group DGX + Garcinol)
[10] = Sprague-Dawley, digoxin 0.5 mg/kg intragastric 2 h after vehicle (group DGX)
[11] = rats, bupropion 10 mg/kg in probe mixture on day 8, with garcinol 25 mg/kg oral for 7 days

Question: Which results are given for `CC(NC(C)(C)C)C(=O)c1cccc(Cl)c1` (stereo not shown) [Bupropion, bupropion]?
Answer: AUC(0-inf) (CYP2B6 [1]; [8]): 48800 ng·h/mL; AUC(0-t) (CYP2B6 [1]; [8]): 48200 ng·h/mL; Cmax (CYP2B6 [1]; [8]): 8100 ± 121 ng/mL; Tmax (CYP2B6 [1]; [8]): 2.5 ± 3.52 h

Question: What does the source list for `C[C@H]1O[C@@H](O[C@H]2[C@@H](O)C[C@H](O[C@H]3[C@@H](O)C[C@H](O[C@H]4CC[C@@]5(C)[C@H](CC[C@@H]6[C@@H]5C[C@@H](O)[C@]5(C)[C@@H](C7=CC(=O)OC7)CC[C@]65O)C4)O[C@@H]3C)O[C@@H]2C)C[C@H](O)[C@@H]1O` [DGX, digoxin]?
Answer: Cl (P-gp [2]; [9]): 1474.76 ± 85.34 mL/h/kg; Cl (P-gp [2]; digoxin 0.5 mg/kg intragastric 2 h after vehicle (group DGX)): 984.06 ± 56.87 mL/h/kg; Cmax (P-gp [2]; Sprague-Dawley, digoxin 0.5 mg/kg 2 h after single dose garcinol 25 mg/kg (group DGX + Garcinol)): 16.8 ± 4.22 ng/mL; Cmax (P-gp [2]; [10]): 26.1 ± 5.23 ng/mL; AUC(0-inf) (P-gp [2]; [10]): 254 ± 19.2 ng·h/mL; AUC(0-t) (P-gp [2]; [10]): 172 ± 12.3 ng·h/mL; half-life (P-gp [2]; [10]): 904 ± 21 min; AUC(0-inf) (P-gp [2]; [9]): 172 ± 12.6 ng·h/mL; AUC(0-t) (P-gp [2]; [9]): 151.4 ± 0.58 ng·h/mL; half-life (P-gp [2]; [9]): 439 ± 105 min

Question: How did the IC50 (CYP1A2) turn out when `C=C(C)[C@@H](CC=C(C)C)C[C@@]12C[C@@H](CC=C(C)C)C(C)(C)[C@@](CC=C(C)C)(C(=O)C(C(=O)c3ccc(O)c(O)c3)=C1O)C2=O` [Garcinol] was run?
Answer: 7.6 µM

Question: What about the “P-gp expression increase vs control group” value (P-gp [3]; rat brain tissue) of the same compound?
Answer: 1.62 fold

Question: And the “P-gp expression increase vs control group” value (P-gp [3]; rat intestinal tissue)?
Answer: 1.07 fold

Question: What about the “Effect on P-gp function in vivo (in words)” value (P-gp [2]; rats, single dose garcinol 25 mg/kg, digoxin as P-gp substrate) of the same compound?
Answer: not an inhibitor of P-gp

Question: And the IC50 (CYP2E1)?
Answer: 19 µM

Question: And the IC50 (CYP2D6)?
Answer: 9.5 µM

Question: What about the IC50 (CYP2C9) of the same compound?
Answer: 8 µM

Question: And the IC50 (CYP3A4 [4])?
Answer: 5.1 µM

Question: And the IC50 (CYP2B6 [5])?
Answer: 2100 nM

Question: And the “Shift in IC50 (time dependent inhibition)” value (CYP isoforms)?
Answer: no significant shift

Question: What about the “Shift in IC50 (time dependent inhibition)” value (CYP isoforms; listed as garcinol) of the same compound?
Answer: did not show shift

Question: What about the IC50 (CYP2C8; pH 7.4, probe paclitaxel (6α-hydroxylation), rat liver microsomes 0.5 mg/mL, substrate paclitaxel, garcinol 0.11-30 µM) of the same compound?
Answer: > 30 µM

Question: What about the “Inhibition of CYP2C8 (in words)” value (CYP2C8) of the same compound?
Answer: no apparent inhibition

Question: What about the “Inhibition of CYP2C8 (in words)” value (CYP2C8; listed as garcinol) of the same compound?
Answer: negligibly inhibited

Question: What about the IC50 (CYP2C19) of the same compound?
Answer: 16.4 µM

Question: With `C[C@H]1NC(C)(C)CO[C@]1(O)c1cccc(Cl)c1` [Hydroxy Bupropion, hydroxybupropion] as the compound, how does the “AUC0-∞” value (CYP2B6 [1]; [11]) read?
Answer: 6200.97 ± 106.97 ng·h/mL

Question: And the AUClast (CYP2B6 [1]; [11])?
Answer: 6057.86 ± 101.41 ng·h/mL

Question: And the Cmax (CYP2B6 [1]; [11])?
Answer: 632.02 ± 30.55 ng/mL

Question: What about the Tmax (CYP2B6 [1]; [11]) of the same compound?
Answer: 1 ± 1.93 h

Question: What about the t1/2 (CYP2B6 [1]; [11]) of the same compound?
Answer: 10.23 ± 0.04 h

Question: How did the AUClast (CYP3A4 [6]) turn out when `OCc1ncc2n1-c1ccc(Cl)cc1C(c1ccccc1F)=NC2` [hydroxy midazolam, 1-hydroxy midazolam] was run?
Answer: 737.45 ± 66.95 ng·h/mL

Question: And the Cmax (CYP3A4 [6])?
Answer: 482.85 ± 14.34 ng/mL

Question: What about the Tmax (CYP3A4 [6]) of the same compound?
Answer: 15 ± 115 min

Question: And the t1/2 (CYP3A4 [6])?
Answer: 2.15 ± 0.36 h

Question: How did the AUC(0-inf) (CYP3A4 [7]) turn out when `Cc1ncc2n1-c1ccc(Cl)cc1C(c1ccccc1F)=NC2` [midazolam] was run?
Answer: 1140 ± 77.4 ng·h/mL

Question: And the AUC(0-t) (CYP3A4 [7])?
Answer: 1240 ± 18.6 ng·h/mL

Question: And the Cmax (CYP3A4 [7])?
Answer: 829 ± 15.7 ng/mL

Question: And the Tmax (CYP3A4 [7])?
Answer: 30 ± 73.8 min

Question: And the half-life (CYP3A4 [7])?
Answer: 187 ± 52.8 min
